From ChEMBL document CHEMBL3885861, “Open TG-GATES”

Organism: Rattus norvegicus
Assay: Open TG-GATES - Regimen: Daily Repeat
Assay type: toxicity, organism-based, Sprague-Dawley
Design: regimen Daily Repeat, gender Male, age 6 weeks
Settings: in vivo, po, 20 mg/kg, route gavage, dose level High; for APTT / Bas / Eos / Fbg / Hb / Lym / MCH / MCHC / MCV / Mono / Neu / PT / Plat / RBC / Ret / WBC: tissue Blood; for KIDNEY_L / KIDNEY_R / KIDNEY_TOTAL: tissue Kidney; for LIVER: tissue Liver; for ALP / ALT / AST / BUN / CRE / Ca / Cl / DBIL / GLC / IP / K / LDH / Na / PL / RALB / TBIL / TC / TG / TP / gamma-GTP: tissue Plasma

Compound `OCCN1CCN(CCCN2c3ccccc3Sc3ccc(C(F)(F)F)cc32)CC1` [FLUPHENAZINE] has a TERMINAL_BW (72 h, time 3 day) of 168.5 g, an APTT (72 h, time 3 day) of 13.2 s and a Bas (72 h, time 3 day) of 0%. For the same compound, the Eos (72 h, time 3 day) was 1.2%, the Fbg (72 h, time 3 day) was 176.8 mg/dL and the Hb (72 h, time 3 day) was 16 g/dL. For the same compound, the Lym (72 h, time 3 day) was 84.6%, the MCH (72 h, time 3 day) was 21.1 pg and the MCHC (72 h, time 3 day) was 33.1%. It also gave an MCV (72 h, time 3 day) of 63.6 fL, a Mono (72 h, time 3 day) of 5.2% and a Neu (72 h, time 3 day) of 9.2%. For the same compound, the PT (72 h, time 3 day) was 12.7 s, the Plat (72 h, time 3 day) was 131.6 x10_4/uL and the RBC (72 h, time 3 day) was 756.8 x10_4/ul. For the same compound, the Ret (72 h, time 3 day) was 1.2%, the WBC (72 h, time 3 day) was 83.2 x10_2/uL and the KIDNEY_L (72 h, time 3 day) was 0.9 g. The KIDNEY_R (72 h, time 3 day) was 0.9 g, the KIDNEY_TOTAL (72 h, time 3 day) was 1.7 g and the LIVER (72 h, time 3 day) was 7.4 g. The ALP (72 h, time 3 day) was 538 IU/L, the ALT (72 h, time 3 day) was 28 IU/L and the AST (72 h, time 3 day) was 76.2 IU/L. It also gave a BUN (72 h, time 3 day) of 23.4 mg/dL, a CRE (72 h, time 3 day) of 0.6 mg/dL and a Ca (72 h, time 3 day) of 10.1 mg/dL. For the same compound, the Cl (72 h, time 3 day) was 108.4 meq/L, the DBIL (72 h, time 3 day) was 0.036 mg/dL and the GLC (72 h, time 3 day) was 180.4 mg/dL. It also gave an IP (72 h, time 3 day) of 7 mg/dL, a K (72 h, time 3 day) of 4.2 meq/L and an LDH (72 h, time 3 day) of 189 IU/L. The Na (72 h, time 3 day) was 140 meq/L, the PL (72 h, time 3 day) was 128 mg/dL and the RALB (72 h, time 3 day) was 4.2 g/dL. For the same compound, the TBIL (72 h, time 3 day) was 0.3 mg/dL, the TC (72 h, time 3 day) was 74.6 mg/dL and the TG (72 h, time 3 day) was 48.4 mg/dL. It also gave a TP (72 h, time 3 day) of 5.8 g/dL, a gamma-GTP (72 h, time 3 day) of 1 IU/L and a TERMINAL_BW ([…], time 7 day) of 190 g. It also gave a TERMINAL_BW ([…], time 14 day) of 258.2 g, a TERMINAL_BW ([…], time 28 day) of 303.2 g and an APTT ([…], time 7 day) of 15.9 s. The Bas ([…], time 7 day) was 0%, the Eos ([…], time 7 day) was 0.4% and the Fbg ([…], time 7 day) was 204.6 mg/dL. It also gave a Hb ([…], time 7 day) of 15.5 g/dL, a Lym ([…], time 7 day) of 86.4% and an MCH ([…], time 7 day) of 20.9 pg. It also gave an MCHC ([…], time 7 day) of 33.8%, an MCV ([…], time 7 day) of 61.7 fL and a Mono ([…], time 7 day) of 4.8%. It also gave a Neu ([…], time 7 day) of 8.4%, a PT ([…], time 7 day) of 12.6 s and a Plat ([…], time 7 day) of 95.7 x10_4/uL. It also gave an RBC ([…], time 7 day) of 745.2 x10_4/ul, a Ret ([…], time 7 day) of 2.3% and a WBC ([…], time 7 day) of 93.7 x10_2/uL. For the same compound, the APTT ([…], time 14 day) was 16.1 s, the Bas ([…], time 14 day) was 0% and the Eos ([…], time 14 day) was 0.8%. For the same compound, the Fbg ([…], time 14 day) was 214.5 mg/dL, the Hb ([…], time 14 day) was 14.8 g/dL and the Lym ([…], time 14 day) was 80.2%. It also gave an MCH ([…], time 14 day) of 20.5 pg, an MCHC ([…], time 14 day) of 33.3% and an MCV ([…], time 14 day) of 61.6 fL. For the same compound, the Mono ([…], time 14 day) was 6.2%, the Neu ([…], time 14 day) was 13% and the PT ([…], time 14 day) was 12.3 s. The Plat ([…], time 14 day) was 95.6 x10_4/uL, the RBC ([…], time 14 day) was 724 x10_4/ul and the Ret ([…], time 14 day) was 3.9%. It also gave a WBC ([…], time 14 day) of 124.5 x10_2/uL, an APTT ([…], time 28 day) of 16.6 s and a Bas ([…], time 28 day) of 0%. The Eos ([…], time 28 day) was 0.8%, the Fbg ([…], time 28 day) was 206 mg/dL and the Hb ([…], time 28 day) was 15.6 g/dL. It also gave a Lym ([…], time 28 day) of 84.2%, an MCH ([…], time 28 day) of 19.4 pg and an MCHC ([…], time 28 day) of 33.7%. The MCV ([…], time 28 day) was 57.7 fL, the Mono ([…], time 28 day) was 4% and the Neu ([…], time 28 day) was 11%. It also gave a PT ([…], time 28 day) of 12.3 s, a Plat ([…], time 28 day) of 73.1 x10_4/uL and an RBC ([…], time 28 day) of 804 x10_4/ul. For the same compound, the Ret ([…], time 28 day) was 2.5%, the WBC ([…], time 28 day) was 157 x10_2/uL and the KIDNEY_L ([…], time 7 day) was 0.9 g. The KIDNEY_R ([…], time 7 day) was 0.9 g, the KIDNEY_TOTAL ([…], time 7 day) was 1.8 g and the KIDNEY_L ([…], time 14 day) was 1 g. For the same compound, the KIDNEY_R ([…], time 14 day) was 1 g, the KIDNEY_TOTAL ([…], time 14 day) was 2.1 g and the KIDNEY_L ([…], time 28 day) was 1.1 g. It also gave a KIDNEY_R ([…], time 28 day) of 1.2 g, a KIDNEY_TOTAL ([…], time 28 day) of 2.3 g and an LIVER ([…], time 7 day) of 9 g. It also gave an LIVER ([…], time 14 day) of 11.9 g, an LIVER ([…], time 28 day) of 11.9 g and an ALP ([…], time 7 day) of 653.8 IU/L. It also gave an ALT ([…], time 7 day) of 44.4 IU/L, an AST ([…], time 7 day) of 79.6 IU/L and a BUN ([…], time 7 day) of 28.8 mg/dL. It also gave a CRE ([…], time 7 day) of 0.5 mg/dL, a Ca ([…], time 7 day) of 10.3 mg/dL and a Cl ([…], time 7 day) of 105.4 meq/L. For the same compound, the DBIL ([…], time 7 day) was 0.01 mg/dL, the GLC ([…], time 7 day) was 158.2 mg/dL and the IP ([…], time 7 day) was 7 mg/dL. For the same compound, the K ([…], time 7 day) was 4.4 meq/L, the LDH ([…], time 7 day) was 195.8 IU/L and the Na ([…], time 7 day) was 140.4 meq/L. For the same compound, the PL ([…], time 7 day) was 184.6 mg/dL, the RALB ([…], time 7 day) was 4.2 g/dL and the TBIL ([…], time 7 day) was 0.2 mg/dL. It also gave a TC ([…], time 7 day) of 101.2 mg/dL, a TG ([…], time 7 day) of 98.6 mg/dL and a TP ([…], time 7 day) of 6.2 g/dL. The gamma-GTP ([…], time 7 day) was 1 IU/L, the ALP ([…], time 14 day) was 872 IU/L and the ALT ([…], time 14 day) was 44.8 IU/L. The AST ([…], time 14 day) was 81.5 IU/L, the BUN ([…], time 14 day) was 19.8 mg/dL and the CRE ([…], time 14 day) was 0.6 mg/dL. For the same compound, the Ca ([…], time 14 day) was 10.8 mg/dL, the Cl ([…], time 14 day) was 103.2 meq/L and the DBIL ([…], time 14 day) was 0.0025 mg/dL. It also gave a GLC ([…], time 14 day) of 182.8 mg/dL, an IP ([…], time 14 day) of 8.7 mg/dL and a K ([…], time 14 day) of 4.2 meq/L. It also gave an LDH ([…], time 14 day) of 148 IU/L, a Na ([…], time 14 day) of 137.2 meq/L and a PL ([…], time 14 day) of 141 mg/dL. It also gave an RALB ([…], time 14 day) of 4.2 g/dL, a TBIL ([…], time 14 day) of 0.2 mg/dL and a TC ([…], time 14 day) of 66.5 mg/dL. It also gave a TG ([…], time 14 day) of 86.8 mg/dL, a TP ([…], time 14 day) of 6.2 g/dL and a gamma-GTP ([…], time 14 day) of 2 IU/L. For the same compound, the ALP ([…], time 28 day) was 676.6 IU/L, the ALT ([…], time 28 day) was 31.6 IU/L and the AST ([…], time 28 day) was 80.2 IU/L. It also gave a BUN ([…], time 28 day) of 24.2 mg/dL, a CRE ([…], time 28 day) of 0.7 mg/dL and a Ca ([…], time 28 day) of 10.4 mg/dL. For the same compound, the Cl ([…], time 28 day) was 111.2 meq/L, the DBIL ([…], time 28 day) was 0.022 mg/dL and the GLC ([…], time 28 day) was 170.8 mg/dL. It also gave an IP ([…], time 28 day) of 6.2 mg/dL, a K ([…], time 28 day) of 4.4 meq/L and an LDH ([…], time 28 day) of 145.6 IU/L. For the same compound, the Na ([…], time 28 day) was 142 meq/L, the PL ([…], time 28 day) was 114.4 mg/dL and the RALB ([…], time 28 day) was 4.2 g/dL. It also gave a TBIL ([…], time 28 day) of 0.3 mg/dL, a TC ([…], time 28 day) of 57.8 mg/dL and a TG ([…], time 28 day) of 35.4 mg/dL. The TP ([…], time 28 day) was 6.4 g/dL and the gamma-GTP ([…], time 28 day) was 1.4 IU/L.
